Data from US10316017B2, “COT modulators and methods of use thereof” (Gilead Sciences, Inc., priority 2015, dated 2019).

Key:
[1] = system: TNFα production in LPS-stimulated human monocytes; assay: Cot Monocyte TNFα Cell Based Assay; details: Homo sapiens, Monocyte, TNFα in LPS-stimulated human monocytes; read-out: EC50 TNF
Summary of the method: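 Cells at 5,000/well were pretreated with compound for 1 h at 37 °C (0.5% DMSO final), then stimulated with 50 pg/ml LPS for 4 h at 37 °C. Supernatant TNFα was measured by two-antibody TR-FRET after overnight room-temperature incubation; values are percent of control between unstimulated and stimulated wells.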

[2] = target: T1, human Cot catalytic domain (30-397 amino acids) (Homo sapiens, UniProt P41279); assay: High Throughput Cot Biochemical Assay (KinEASE TR-FRET); details: Cot biochemical HTRF (KinEASE TR-FRET) assay; read-out: IC50 HTRF
T1 construct: Purified recombinant human Cot catalytic domain (30-397 amino acids) was purchased from Cama Biosciences; purchased Cama Biosciences (so in the source)
Summary of the method: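 Reaction of 5 nM recombinant human Cot catalytic domain (aa 30-397) with 1 μM STK3 peptide (XL665-labeled) and 400 μM ATP in 10 mM MOPS pH 7.0, 10 mM MgOAc, 1 mM DTT, 0.5 mg/mL BSA, 0.1% DMSO. Phosphopeptide detected by TR-FRET with europium anti-phospho antibody.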

T1 sequence (P41279 30-397): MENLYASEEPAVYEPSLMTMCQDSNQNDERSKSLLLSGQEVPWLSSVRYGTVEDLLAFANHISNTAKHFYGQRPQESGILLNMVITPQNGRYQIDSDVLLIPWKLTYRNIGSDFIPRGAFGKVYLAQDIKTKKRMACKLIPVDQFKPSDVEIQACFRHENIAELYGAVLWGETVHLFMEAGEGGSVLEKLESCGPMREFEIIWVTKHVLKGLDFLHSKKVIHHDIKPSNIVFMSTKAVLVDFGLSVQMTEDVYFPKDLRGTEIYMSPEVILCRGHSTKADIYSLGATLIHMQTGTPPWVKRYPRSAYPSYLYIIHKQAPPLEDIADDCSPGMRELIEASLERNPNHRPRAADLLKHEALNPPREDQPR

| Compound | EC50 [1] [nM] | IC50 [2] [nM] |
| --- | --- | --- |
| C[C@@H](Nc1c(C#N)cnc2c(Cl)cc(N[C@@H](c3ccccc3)c3cn(C4CCN(C(C)(C)C)CC4)nn3)cc12)c1cccc(F)c1 [Example 633, 6-(((S)-(1-(1-(tert-butyl)piperidin-4-yl)-1H-1,2,3-triazol-4-yl)(phenyl)methyl)amino)-8-chloro-4-(((R)-1-(3-fluorophenyl)ethyl)amino) quinoline-3-carbonitrile] | 1580 | 10 |
| C[C@@H](Nc1c(C#N)cnc2c(Cl)cc(N[C@@H](c3ccccc3)c3cn(C4CCN(C(C)(C)C)CC4)nn3)cc12)c1ccc(F)cc1 [Example 634, 6-(((S)-(1-(1-(tert-butyl)piperidin-4-yl)-1H-1,2,3-triazol-4-yl)(phenyl)methyl)amino)-8-chloro-4-(((R)-1-(4-fluorophenyl)ethyl)amino) quinoline-3-carbonitrile] | 3090 | 30 |
| CC(C)(C)N1CCC(n2cc([C@@H](Nc3cc(Cl)c4ncc(C#N)c(NC5C6CC7CC(C6)CC5C7)c4c3)c3ccccc3)nn2)CC1 (stereo partly drawn) [Example 635, 4-(((1S,3S,5S,7S)-adamantan-2-yl)amino)-6-(((S)-(1-(1-(tert-butyl)piperidin-4-yl)-1H-1,2,3-triazol-4-yl)(phenyl)methyl)amino)-8-chloroquinoline-3-carbonitrile] | 1080 | 13 |
| CC(C)(C)N1CCC(n2cc([C@@H](Nc3cc(Cl)c4ncc(C#N)c(NC56CCC7CC(CC(C7)C5)C6)c4c3)c3ccccc3)nn2)CC1 [Example 636, 6-(((S)-(1-(1-(tert-butyl)piperidin-4-yl)-1H-1,2,3-triazol-4-yl)(phenyl)methyl)amino)-8-chloro-4-(((1R,3r,6S,8S)-tricyclo[4.3.1.13,8]undecan-3-yl)amino)quinoline-3-carbonitrile] | 2390 | 143 |
| CC(C)(C)N1CCC(n2cc([C@@H](Nc3cc(Cl)c4ncc(C#N)c(NC56CC7CC(CC(C7)C5)C6)c4c3)c3ccccc3)nn2)CC1 [Example 637, 4-(((3R,5R,7R)-adamantan-1-yl)amino)-6-(((S)-(1-(1-(tert-butyl)piperidin-4-yl)-1H-1,2,3-triazol-4-yl)(phenyl)methyl)amino)-8-chloroquinoline-3-carbonitrile] | 1280 | 36 |
| N#Cc1cnc2c(Cl)cc(N[C@@H](c3ccc(Cl)cc3)c3c[nH]nn3)cc2c1Nc1ccc2c(cnn2Cc2ccccc2)c1 [Example 638, (S)-4-((1-benzyl-1H-indazol-5-yl)amino)-8-chloro-6-(((4-chlorophenyl)(1H-1,2,3-triazol-4-yl)methyl)amino)quinoline-3-carbonitrile] | 2650 | > 10000 |
| N#Cc1cnc2c(Cl)cc(N[C@@H](c3ccc(Cl)cc3)c3c[nH]nn3)cc2c1Nc1cc(Cl)ccc1F [Example 639, (S)-8-chloro-4-((5-chloro-2-fluorophenyl)amino)-6-(((4-chlorophenyl)(1H-1,2,3-triazol-4-yl)methyl)amino)quinoline-3-carbonitrile] | 1710 | 664 |
| N#Cc1cnc2c(Cl)cc(N[C@@H](c3ccc(Cl)cc3)c3c[nH]nn3)cc2c1Nc1c(F)cccc1F [Example 640, (S)-8-chloro-6-(((4-chlorophenyl)(1H-1,2,3-triazol-4-yl)methyl)amino)-4-((2,6-difluorophenyl)amino)quinoline-3-carbonitrile] | 2840 | 2340 |
| N#Cc1cnc2c(Cl)cc(NC(c3ccccc3)c3cn(C4CCNCC4)cn3)cc2c1Nc1ccc(F)c(Cl)c1 (stereo not drawn) [Example 642, 8-chloro-4-((3-chloro-4-fluorophenyl)amino)-6-((phenyl (1-(piperidin-4-yl)-1H-imidazo-4-yl)methyl)amino)quinoline-3-carbonitrile] | 383 | 17 |
| CC(C)(C)N1CCC(n2cc([C@@H](Nc3cc(Cl)c4ncc(C#N)c(Nc5ccc(F)c(Cl)c5)c4c3)c3cccc(I)c3)nn2)CC1 [Example 643] | 151 | 7 |

Continued, values first:

| EC50 [1] [nM] | IC50 [2] [nM] | Compound |
| --- | --- | --- |
| 1100 | 132 | N#Cc1cnc2c(Cl)cc(N[C@@H](c3ccccc3)c3c[nH]nn3)cc2c1Nc1ccc(Cl)c(Cl)c1F [Example 644, (S)-8-chloro-4-((3,4-dichloro-2-fluorophenyl)amino)-6-((phenyl(1H-1,2,3-triazol-4-yl)methyl)amino)quinoline-3-carbonitrile] |
| 41 | 2 | CC(C)(C)N1CCC(n2cc([C@@H](Nc3cc(Cl)c4ncc(C#N)c(Nc5ccc(F)c(Cl)c5)c4c3)c3cccc(C(=O)N4CC(F)(F)C4)c3)nn2)CC1 [Example 645, (S)-6-(((1-(1-(tert-butyl)piperidin-4-yl)-1H-1,2,3-triazol-4-yl)(3-(3,3-difluoroazetidine-1-carbonyl)phenyl)methyl)amino)-8-chloro-4-((3-chloro-4-fluorophenyl)amino)quinoline-3-carbonitrile] |
| 49 | 1 | CC(C)(C)N1CCC(n2cc([C@@H](Nc3cc(Cl)c4ncc(C#N)c(Nc5ccc(F)c(Cl)c5)c4c3)c3cccc(C(=O)N4CC(F)C4)c3)nn2)CC1 [Example 646, (S)-6-(((1-(1-(tert-butyl)piperidin-4-yl)-1H-1,2,3-triazol-4-yl)(3-(3-fluoroazetidine-1-carbonyl)phenyl)methyl)amino)-8-chloro-4-((3-chloro-4-fluorophenyl)amino)quinoline-3-carbonitrile] |
| 3240 | 377 | N#Cc1cnc2c(Cl)cc(N[C@@H](c3ccc(Cl)cc3)c3c[nH]nn3)cc2c1Nc1cc(F)c(F)cc1F [Example 647, (S)-8-chloro-6-(((4-chlorophenyl)(1H-1,2,3-triazol-4-yl)methyl)amino)-4-((2,4,5-trifluorophenyl)amino)quinoline-3-carbonitrile] |
| 4430 | > 10000 | N#Cc1cnc2c(Cl)cc(N[C@@H](c3ccc(Cl)cc3)c3c[nH]nn3)cc2c1Nc1ccc(OCc2ccccc2)c(Cl)c1 [Example 648, (S)-4-((4-(benzyloxy)-3-chlorophenyl)amino)-8-chloro-6-(((4-chlorophenyl)(1H-1,2,3-triazol-4-yl)methyl)amino)quinoline-3-carbonitrile] |
| 2740 | 1460 | CCOc1ccc(Nc2c(C#N)cnc3c(Cl)cc(N[C@@H](c4ccc(Cl)cc4)c4c[nH]nn4)cc23)cc1Cl [Example 649, (S)-8-chloro-4-((3-chloro-4-ethoxyphenyl)amino)-6-(((4-chlorophenyl)(1H-1,2,3-triazol-4-yl)methyl)amino)quinoline-3-carbonitrile] |
| 661 | 32 | CC(C)(C)N1CCC(n2cc([C@@H](Nc3cc(Cl)c4ncc(C#N)c(Nc5ccc(F)c(F)c5F)c4c3)c3ccc(Cl)cc3)nn2)CC1 [Example 650, (S)-6-(((1-(1-(tert-butyl)piperidin-4-yl)-1H-1,2,3-triazol-4-yl)(4-chlorophenyl)methyl)amino)-8-chloro-4-((2,3,4-trifluorophenyl)amino)quinoline-3-carbonitrile] |
| 10600 | 52 | CC(C)(C)N1CCC(n2cc([C@@H](Nc3cc(Cl)c4ncc(C#N)c(Nc5cc(F)c(F)cc5F)c4c3)c3ccc(Cl)cc3)nn2)CC1 [Example 651, (S)-6-(((1-(1-(tert-butyl)piperidin-4-yl)-1H-1,2,3-triazol-4-yl)(4-chlorophenyl)methyl)amino)-8-chloro-4-((2,4,5-trifluorophenyl)amino)quinoline-3-carbonitrile] |
